# Values quoted from earlier work in paper PMC6915728 (Nature Communications, 2019).
# Read-outs that look alike come from different tables or passages of the source.
# Experiments:
# [1] = tested on: E. coli gene overexpression; conditions: cited from earlier work
# Source text: Supplement 41467_2019_13618_MOESM1_ESM.docx, table 1: Supplementary Table 1. Collected examples of E. coli gene overexpression from the literature as a confirmation of our chemical-genetic screen results. | column: Overexpression phenotype
# bacterial membrane = conditions: literature mining; ref superscript numbers in the cell, listed in Supplementary Data 7 sheet References; cited from earlier work
# Source text: Supplement 41467_2019_13618_MOESM10_ESM.xlsx, sheet "AMP details" | column: Pore formation
# [2] = tested on: bacterial species in which the gene showed activity; conditions: cited from earlier work
sequence,measurement,setting,value
"KTKKKFLKKT [PXB, Polymyxin B, from Bacillus polymyxa, purchased from Sigma-Aldrich; disrupts cell membrane; cluster C1]","Overexpression phenotype, Literature","[1]; gene arnT overexpressed, ref 5 (Trent et al. 2001)",Resistance^5
same,"Overexpression phenotype, Literature","[1]; gene eptA overexpressed, ref 7 (Olaitan et al. 2014)",Resistance^7
same,"Overexpression phenotype, Literature","[1]; gene marA overexpressed, ref 3 (Warner & Levy 2010)",Resistance^3
same,"Overexpression phenotype, Literature","[1]; gene pmrD overexpressed, ref 8 (Roland et al. 1994)",Resistance^8
same,Pore formation (whether AMP makes pores in the bacterial membrane),bacterial membrane,Yes2
same,Gene that modulates bacterial susceptibility to the AMP,"[2]; Acinetobacter baumannii, ref http://aac.asm.org/content/54/12/4971.full.pdf+html",lpxA
same,Gene that modulates bacterial susceptibility to the AMP,"[2]; Bordetella pertussis, ref http://www.ncbi.nlm.nih.gov/pmc/articles/PMC4136009/","lgmA, IgmB, IgmC"
same,Gene that modulates bacterial susceptibility to the AMP,"[2]; Burkholderia genus, ref http://www.ncbi.nlm.nih.gov/pmc/articles/PMC3143681/, http://www.ncbi.nlm.nih.gov/pmc/articles/PMC1428139/",waaF
same,Gene that modulates bacterial susceptibility to the AMP,"[2]; Campylobacter jejuni, ref http://www.ncbi.nlm.nih.gov/pmc/articles/PMC3270987/",eptC
same,Gene that modulates bacterial susceptibility to the AMP,"[2]; Escherichia coli, Klebsiella pneumoniae, Pseudomonas aeruginosa, Kluyvera ascorbata, ref http://www.ncbi.nlm.nih.gov/pubmed/26603172, http://ac.els-cdn.com/S1473309915005332/1-s2.0-S1473309915005332-main.pdf?_tid=16a7f944-6944-11e6-8a9d-00000aab0f02&acdnat=1471965364_7f481026d1a49114e23adef4a6b4d1a9, https://www.ncbi.nlm.nih.gov/pmc/articles/PMC5119035/",mcr1
same,Gene that modulates bacterial susceptibility to the AMP,"[2]; Escherichia coli, Salmonella sp., Pseudomonas aeruginosa, ref https://ac.els-cdn.com/S0923250806000532/1-s2.0-S0923250806000532-main.pdf?_tid=eafe08ea-d0fa-11e7-b1a6-00000aacb35f&acdnat=1511516356_5b16dbb059dc1cc9bc53dd73456e437d",etk
same,Gene that modulates bacterial susceptibility to the AMP,"[2]; Escherichia coli, ref http://www.jbc.org/content/287/46/38778.full.pdf, http://www.jbc.org/content/early/2007/10/10/jbc.M706172200.full.pdf, https://onlinelibrary.wiley.com/doi/epdf/10.1111/j.1365-2958.2012.08154.x",arnD
same,Gene that modulates bacterial susceptibility to the AMP,"[2]; Helicobacter pylori, ref http://www.ncbi.nlm.nih.gov/pmc/articles/PMC1482963/",lpxE
same,Gene that modulates bacterial susceptibility to the AMP,"[2]; Klebsiella pneumoniae, ref http://iai.asm.org/content/72/12/7107.full.pdf+html",cps
same,Gene that modulates bacterial susceptibility to the AMP,"[2]; Klebsiella pneumoniae, ref http://jac.oxfordjournals.org/content/70/1/75.full.pdf+html, http://embomolmed.embopress.org/content/9/4/430.long",mgrB
same,Gene that modulates bacterial susceptibility to the AMP,"[2]; Klebsiella pneumoniae, ref http://www.ncbi.nlm.nih.gov/pmc/articles/PMC2798511/",acrB
same,Gene that modulates bacterial susceptibility to the AMP,"[2]; Neisseria meningitidis, Neisseria gonorrhoeae, ref http://www.ncbi.nlm.nih.gov/pmc/articles/PMC1196002/","mtrC, mtrD, mtrE"
same,Gene that modulates bacterial susceptibility to the AMP,"[2]; Neisseria meningitidis, ref https://www.ncbi.nlm.nih.gov/pmc/articles/PMC1196002/",lptA
same,Gene that modulates bacterial susceptibility to the AMP,"[2]; Neisseria meningitidis, ref https://www.ncbi.nlm.nih.gov/pmc/articles/PMC1196002/pdf/0005-05.pdf",lpxL1
same,Gene that modulates bacterial susceptibility to the AMP,"[2]; Parasutterella excrementihominis, ref https://utmb.influuent.utsystem.edu/en/publications/quorum-sensing-escherichia-coli-regulators-b-and-c-qsebc-a-novel-",qseB (pmrA)
same,Gene that modulates bacterial susceptibility to the AMP,"[2]; Porphyromonas gingivalis, ref https://www.nature.com/articles/ijos200918.pdf?origin=ppub, https://www.ncbi.nlm.nih.gov/pmc/articles/PMC4388331/pdf/nihms-656041.pdf",lpxF
same,Gene that modulates bacterial susceptibility to the AMP,"[2]; Pseudomonas aeruginosa, Salmonella typhimurium, Escherichia coli, ref http://www.sciencemag.org/content/286/5444/1561.full.pdf, http://onlinelibrary.wiley.com/doi/10.1111/j.1365-2958.1995.tb02299.x/abstract, http://www.ncbi.nlm.nih.gov/pmc/articles/PMC50673/pdf/pnas01098-0300.pdf, https://jb.asm.org/content/jb/182/14/4077.full.pdf",phoP (PhoPQ)
same,Gene that modulates bacterial susceptibility to the AMP,"[2]; Pseudomonas aeruginosa, gene colR (ColRS), ref https://www.ncbi.nlm.nih.gov/pmc/articles/PMC4244539/pdf/fmicb-05-00643.pdf, http://aac.asm.org/content/57/5/2204.full.pdf+html",colR (ColRS)
same,Gene that modulates bacterial susceptibility to the AMP,"[2]; Pseudomonas aeruginosa, gene cprR (CprRS), ref https://www.ncbi.nlm.nih.gov/pmc/articles/PMC4244539/pdf/fmicb-05-00643.pdf, http://aac.asm.org/content/57/5/2204.full.pdf+html",cprR (CprRS)
same,Gene that modulates bacterial susceptibility to the AMP,"[2]; Pseudomonas aeruginosa, ref http://aac.asm.org/content/54/8/3372.full.pdf+html, http://aac.asm.org/content/56/12/6212.full.pdf+html, http://aac.asm.org/content/57/5/2204.full.pdf+html",parR (ParR-ParS)
same,Gene that modulates bacterial susceptibility to the AMP,"[2]; Pseudomonas aeruginosa, ref http://jb.asm.org/content/186/2/575.long",pmrB
same,Gene that modulates bacterial susceptibility to the AMP,"[2]; Salmonella enterica serovar Typhimurium, ref http://www.jbc.org/content/279/37/38618.long, https://onlinelibrary.wiley.com/doi/epdf/10.1111/j.1365-2958.2005.04553.x",slyA
same,Gene that modulates bacterial susceptibility to the AMP,"[2]; Salmonella enterica serovar Typhimurium, ref http://www.jbc.org/content/279/37/38618.long",ugtL
same,Gene that modulates bacterial susceptibility to the AMP,"[2]; Salmonella enterica serovar Typhimurium, ref http://www.microbiologyresearch.org/docserver/fulltext/micro/154/2/666.pdf?expires=1487718158&id=id&accname=guest&checksum=D8B884D02A8B2A8619216A48E0826377",yejA
same,Gene that modulates bacterial susceptibility to the AMP,"[2]; Salmonella sp., ref https://www.ncbi.nlm.nih.gov/pmc/articles/PMC2904496/",eptA
same,Gene that modulates bacterial susceptibility to the AMP,"[2]; Salmonella typhimurium, Escherichia coli, ref https://www.ncbi.nlm.nih.gov/pmc/articles/PMC3037666/, https://www.ncbi.nlm.nih.gov/pmc/articles/PMC3837802/pdf/zam7770.pdf",cpxA (CpxA/CpxR)
same,Gene that modulates bacterial susceptibility to the AMP,"[2]; Salmonella typhimurium, gene pmrF (arnT operon), ref http://www.jbc.org/content/287/46/38778.full.pdf",pmrF (arnT operon)
same,Gene that modulates bacterial susceptibility to the AMP,"[2]; Salmonella typhimurium, gene yfbG (arnA), ref http://www.jbc.org/content/287/46/38778.full.pdf",yfbG (arnA)
same,Gene that modulates bacterial susceptibility to the AMP,"[2]; Salmonella typhimurium, ref https://www.ncbi.nlm.nih.gov/pmc/articles/PMC205548/pdf/jbacter00030-0157.pdf",pmrD
same,Gene that modulates bacterial susceptibility to the AMP,"[2]; Staphylococcus aureus, ref http://aac.asm.org/content/51/8/2679.full.pdf+html",graR(GraRS)
same,Gene that modulates bacterial susceptibility to the AMP,"[2]; Vibrio cholerae, ref http://pubs.acs.org/doi/pdf/10.1021/cb500438x","almE, almF, almG"
same,Gene that modulates bacterial susceptibility to the AMP,"[2]; Yersinia sp., ref http://www.helsinki.fi/yersinia/pdf_own/Bengo_MolMic_2000_37_67.pdf",rosA
same,Gene that modulates bacterial susceptibility to the AMP,[2],rcp (pagP) and pmm and bveA (BMEII0681)
same,Gene that modulates bacterial susceptibility to the AMP,"[2]; pathogenic or commensal Enterobacteriaceae species, gene rcsB, ref https://www.ncbi.nlm.nih.gov/pmc/articles/PMC2895427/pdf/nihms212407.pdf",rcsB
same,Gene that modulates bacterial susceptibility to the AMP,"[2]; pathogenic or commensal Enterobacteriaceae species, gene rcsC, ref https://www.ncbi.nlm.nih.gov/pmc/articles/PMC2895427/pdf/nihms212407.pdf",rcsC
same,Gene that modulates bacterial susceptibility to the AMP,"[2]; pathogenic or commensal Enterobacteriaceae species, gene rcsD, ref https://www.ncbi.nlm.nih.gov/pmc/articles/PMC2895427/pdf/nihms212407.pdf",rcsD
